One data set deals with SARS-CoV-2 Mpro (Severe acute respiratory syndrome coronavirus 2, UniProt P0DTD1). The experiment in a line: biochemical. The settings on record: enzyme 1.5 μM, substrate 50 μM; for IC50 / IC50 (µM): FRET, 15 min preincubation at 37 °C; for Emax: read-out: Maximum inhibition (%), efficacy compared to negative control (vehicle, DMSO).
Another data set has as its system SARS-CoV-2. The settings on record: comparator values quoted in text; cited from earlier work.
Data set [1] has as its system SARS-CoV-2 B.1 lineage isolate. The experiment in a line: in vitro. Conditions: human.
Data set [2] concerns SARS-CoV-2 B.1 lineage isolate. The experiment in a line: microbe, parasite or virus in culture. Conditions: Severe acute respiratory syndrome coronavirus 2, Calu-3, 24 h.
The nature of data set [3]: Cytotoxicity by methylene blue viability assay. The settings on record: human.
Data set [4] concerns SARS-CoV-2 B.1 lineage isolate.
The next data set is described as follows: in vitro. Conditions: human.
Another data set relates to Calu-3 cells. The experiment in a line: Cytotoxicity by methylene blue viability assay. Conditions: Calu-3 cells.

The values that follow come from paper PMC11026380, “Statine-based peptidomimetic compounds as inhibitors for SARS-CoV-2 main protease (SARS-CoV‑2 Mpro)” (Scientific Reports, 2024).

Each structure is given as a SMILES string. “Also recorded” adds a separate entry of the source. Where only a bound is given, the exact number is not on record here.

Regarding `COC(=O)[C@H](CO)NC(=O)C[C@H](O)[C@@H](N)Cc1ccccc1.O=C(O)C(F)(F)F` [Compound 9a], the melting point fell in the range of 120 to 121 °C. This molecule also displayed an IC50 against SARS-CoV-2 Mpro of over 1000 µM. Besides, the Emax on SARS-CoV-2 Mpro (compounds 0.001 to 1000 μM) turned out to be 57%.
For `COC(=O)[C@@H](NC(=O)CC(O)C(Cc1ccccc1)NC(=O)OC(C)(C)C)C(C)C` (some centres unmarked) [Compound 7h], at SARS-CoV-2 Mpro (efficacy compared to negative control (vehicle, DMSO), compounds 0.001 to 1000 μM), the “Maximum inhibition (%)” value was under 50%.
`COC(=O)[C@H](Cc1ccc(OC(C)=O)cc1)NC(=O)C[C@H](OC(C)=O)[C@H](Cc1ccccc1)NC(=O)OC(C)(C)C` [Compound 8b]: the melting point was in the range of 88 to 89 °C. On SARS-CoV-2 Mpro, this molecule displayed a concentration for half-maximal inhibition (IC50) of over 1000 µM. Also, the Emax on SARS-CoV-2 Mpro (compounds 0.001 to 1000 μM) was 65%.
As to `COC(=O)[C@H](CO)NC(=O)C[C@H](O)[C@H](Cc1ccccc1)NC(=O)OC(C)(C)C` [Compound 7a], the concentration for half-maximal inhibition (IC50) against SARS-CoV-2 Mpro was over 1000 µM. For the same molecule, on SARS-CoV-2 Mpro (compounds 0.001 to 1000 μM), the Emax turned out to be 70%.
With `COC(=O)[C@H](CC(C)C)NC(=O)C[C@H](O)[C@@H](N)Cc1ccccc1.O=C(O)C(F)(F)F` [Compound 9d], the melting point was in the range of 147 to 148 °C. Further, the IC50 on SARS-CoV-2 Mpro was found to be 778 µM. Also, the Emax at SARS-CoV-2 Mpro (compounds 0.001 to 1000 μM) came out at 58%.
Consider `COC(=O)[C@H](CC(C)C)NC(=O)C[C@H](OC(C)=O)[C@H](Cc1ccccc1)NC(=O)OC(C)(C)C` [Compound 8d], for which the melting point is 94 to 95 °C. The half-inhibitory concentration (IC50) on SARS-CoV-2 Mpro is 0.391 µM. For the same molecule, the Emax at SARS-CoV-2 Mpro (compounds 0.001 to 1000 μM) was at least 60%.
`CC(C)(C)OC(=O)N[C@@H](Cc1ccccc1)[C@@H](O)CC(=O)N[C@@H](Cc1ccccc1)C(=O)NN` [Compound 10] registered a half-maximal inhibitory concentration (IC50) against SARS-CoV-2 Mpro of over 1000 µM. For the same molecule, on SARS-CoV-2 Mpro (compounds 0.001 to 1000 μM), the Emax worked out at 61%.
Molecule `COC(=O)[C@@H]1CCCN1C(=O)C[C@H](O)[C@@H](N)Cc1ccccc1` [Compound 9f] had a 50% inhibitory concentration (IC50) against SARS-CoV-2 Mpro of over 1000 µM. In addition, the Emax at SARS-CoV-2 Mpro (compounds 0.001 to 1000 μM) stood at 68%.
For `COC(=O)[C@@H](NC(=O)C[C@H](OC(C)=O)[C@H](Cc1ccccc1)NC(=O)OC(C)(C)C)C(C)C` [Compound 8g], in that order: over 1000 µM and 66%.
For the molecule `COC(=O)[C@H](Cc1ccc(O)cc1)NC(=O)C[C@H](O)[C@H](Cc1ccccc1)NC(=O)OC(C)(C)C` [Compound 7b], the melting point lay within 60 to 62 °C. The same molecule showed an IC50 against SARS-CoV-2 Mpro of over 1000 µM. For the same molecule, at SARS-CoV-2 Mpro (compounds 0.001 to 1000 μM), the Emax was determined as 70%.
`COC(=O)[C@H](Cc1ccccc1)NC(=O)C[C@H](O)[C@H](Cc1ccccc1)NC(=O)OC(C)(C)C` displayed a melting point of 79 to 80 °C.
Still for that read-out and setting: the figure for `COC(=O)[C@@H]1CCCN1C(=O)C[C@H](OC(C)=O)[C@H](Cc1ccccc1)NC(=O)OC(C)(C)C` is 90 to 92 °C.
`CC(C)C(=O)OC[C@H]1O[C@@H](n2ccc(NO)nc2=O)[C@H](O)[C@@H]1O` [molnupiravir]: the EC50 in the data set on SARS-CoV-2 is 1.97 µM.
`COC(=O)[C@H](Cc1ccccc1)NC(=O)C[C@H](O)[C@@H](N)Cc1ccccc1` [Compound 9e] returned an IC50 at SARS-CoV-2 Mpro of over 1000 µM. Besides, the Emax at SARS-CoV-2 Mpro (compounds 0.001 to 1000 μM) was determined as 51%.
Turning to `COC(=O)[C@H](CC(C)C)NC(=O)C[C@H](O)[C@H](Cc1ccccc1)NC(=O)OC(C)(C)C` [Compound 7e], on SARS-CoV-2 Mpro (compounds 0.001 to 1000 μM), the Emax was under 50%.
As to `COC(=O)N[C@H](C(=O)N[C@@H](Cc1ccccc1)[C@@H](O)CN(Cc1ccc(-c2ccccn2)cc1)NC(=O)[C@@H](NC(=O)OC)C(C)(C)C)C(C)(C)C` [ATV, atazanavir, reference compound], the selectivity ratio in data set [1] is over 131. Also, in data set [2], the EC50 was 1.53 ± 0.3 µM. This molecule returned a CC50 at 72 h in data set [3] of over 200 µM.
In turn, `COC(=O)[C@@H](O)CNC(=O)C[C@H](O)[C@H](Cc1ccccc1)NC(=O)OC(C)(C)C` [Compound 7d] returned a melting point of 65 to 66 °C. Moreover, on SARS-CoV-2 Mpro, the half-maximal inhibitory concentration (IC50) came to 0.924 µM and the “IC50 (µM)” value was “sub-micromolar range”. Also, the Emax on SARS-CoV-2 Mpro (compounds 0.001 to 1000 μM) is over 70%. Further, the “Inhibition of SARS-CoV-2 replication” value in data set [4] is given as “roughly 80%”. Further, in data set [1], the selectivity ratio is over 114. Moreover, in “in vitro”, the CC50 at 72 h was over 200 µM. The molecule further had an EC50 in data set [2] of 1.76 ± 0.3 µM.
The molecule `COC(=O)[C@@H](NC(=O)C[C@H](OC(C)=O)[C@H](Cc1ccccc1)NC(=O)OC(C)(C)C)[C@H](C)OC(C)=O` [Compound 8c] gave a melting point of 54 to 55 °C. Moreover, the IC50 against SARS-CoV-2 Mpro is 2.45 µM. Further, the Emax on SARS-CoV-2 Mpro (compounds 0.001 to 1000 μM) was at least 60%.
On to `COC(=O)[C@H](Cc1ccccc1)NC(=O)C[C@H](OC(C)=O)[C@H](Cc1ccccc1)NC(=O)OC(C)(C)C` [Compound 8e], for which the melting point was 89 to 91 °C. On SARS-CoV-2 Mpro, the concentration for half-maximal inhibition (IC50) is 0.606 µM and the “IC50 (µM)” value was “sub-micromolar range”. In addition, on SARS-CoV-2 Mpro (compounds 0.001 to 1000 μM), the Emax was over 70%. Also, in data set [4], the “Inhibition of SARS-CoV-2 replication” value is “roughly 80%”. Further, in [1], the selectivity ratio was over 112. In the data set “in vitro”, the CC50 at 72 h was over 200 µM. The EC50 in [2] was 1.79 ± 0.1 µM.
As for `COC(=O)[C@H](COC(C)=O)NC(=O)C[C@H](OC(C)=O)[C@H](Cc1ccccc1)NC(=O)OC(C)(C)C` [Compound 8a], the melting point lay in the range of 97 to 98 °C. This molecule also gave an IC50 at SARS-CoV-2 Mpro of 1000 µM. Moreover, the Emax at SARS-CoV-2 Mpro (compounds 0.001 to 1000 μM) came out at 50%.
On to `COC(=O)[C@@H](NC(=O)C[C@H](O)[C@H](Cc1ccccc1)NC(=O)OC(C)(C)C)[C@H](C)O` [Compound 7c], for which the melting point lay within 124 to 125 °C. Moreover, on SARS-CoV-2 Mpro (compounds 0.001 to 1000 μM), the Emax is under 50%.
For `COC(=O)[C@@H](NC(=O)C[C@H](O)[C@@H](N)Cc1ccccc1)C(C)C.O=C(O)C(F)(F)F` [Compound 9g], on SARS-CoV-2 Mpro, the IC50 is 0.617 µM and the “IC50 (µM)” value is “sub-micromolar range”. For the same molecule, the Emax on SARS-CoV-2 Mpro (compounds 0.001 to 1000 μM) was over 70%. For the same molecule, in data set [4], the “Inhibition of SARS-CoV-2 replication” value is reported as “roughly 80%”. For the same molecule, in [1], the selectivity ratio was over 132. In addition, the EC50 in [2] was found to be 1.51 ± 0.2 µM. The molecule further yielded a CC50 at 72 h in [3] of over 200 µM. In the data set on Calu-3 cells, the “Cytotoxicity (in words)” value is reported as “no cytotoxicity; also recorded: non-cytotoxic”.
Take `COC(=O)[C@H](Cc1ccc(O)cc1)NC(=O)C[C@H](O)[C@@H](N)Cc1ccccc1.O=C(O)C(F)(F)F` [Compound 9b]: the melting point fell in the range of 98 to 99 °C. The molecule further gave a half-inhibitory concentration (IC50) at SARS-CoV-2 Mpro of over 1000 µM. Also, at SARS-CoV-2 Mpro (compounds 0.001 to 1000 μM), the Emax was 52%.
